According to US20110098180A1, “Herbicide-Resistant Plants, And Polynucleotides And Methods For Providing Same” (United States Department of Agriculture, priority 2002, published 2011):
pIC50: −log10 of the molar value.

Columns and labels:
[1] = target: hydrilla PDS Arg^304 → Serine (Hydrilla verticillata, UniProt Q66PY0, R304S); assay: Cross resistance to bleaching herbicides, in vitro PDS inhibition, non-His-tagged (Table 2); type: biochemical; settings: Serine at 304; construct in frame with LacZalpha-ccdB, non-His-tagged; read-out: I50
Sequence of hydrilla PDS Arg^304 → Serine (Q66PY0 1-580 R304S): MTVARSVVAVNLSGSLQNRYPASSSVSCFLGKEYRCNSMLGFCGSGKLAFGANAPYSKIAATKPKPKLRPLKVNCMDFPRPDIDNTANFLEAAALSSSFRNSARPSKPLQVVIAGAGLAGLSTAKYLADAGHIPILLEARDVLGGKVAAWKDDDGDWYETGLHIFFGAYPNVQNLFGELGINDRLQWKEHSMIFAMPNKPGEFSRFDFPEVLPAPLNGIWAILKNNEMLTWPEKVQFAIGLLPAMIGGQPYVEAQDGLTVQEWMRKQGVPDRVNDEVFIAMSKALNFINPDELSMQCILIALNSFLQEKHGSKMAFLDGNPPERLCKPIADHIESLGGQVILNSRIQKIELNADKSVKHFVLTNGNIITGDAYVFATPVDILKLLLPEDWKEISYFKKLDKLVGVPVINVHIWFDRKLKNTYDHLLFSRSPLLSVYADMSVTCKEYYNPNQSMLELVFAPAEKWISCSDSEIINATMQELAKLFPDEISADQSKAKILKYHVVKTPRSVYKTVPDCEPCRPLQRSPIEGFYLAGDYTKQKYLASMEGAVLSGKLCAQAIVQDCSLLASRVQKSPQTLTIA
Experimental: The expression constructs in Table 2 were derived from an original clone of the susceptible PDS gene from Hydrilla and then the Arg^304 was mutated to the listed amino acid. Expression was under the control of the lac promoter but in frame with the initiation codon of the LacZalpha-ccdB gene in the pCR4-TOPO vector (Invitrogen Inc., CA, Cat. #K4575-01).
All mutagenesis was performed, unless stated otherwise, using the TOPO-vector containing the wildtype (H4) PDS-sequence, which was extracted from an overnight culture with the Qiagen Plasmid Prep Kit as described above. The amount of the extracted plasmid was diluted to 10 ng/μl and used as template in a mutagenesis-procedure using the QuikChange Site-directed Mutagenesis Kit (Stratagene, Calif., #200518). The design of the mutagenesis-primers was conducted according to the manufacturers protocol to enable the specific change of Arg^304-codon to code for the desired amino acid. Primers (purchased from MWG-Biotech) and their introduced amino acid change are listed below with the changed codon underlined:
The reactions were performed according to the manufacturers protocol. Reactions were set up in MicroAmp-tubes on ice with 38 μl ddH2O, 5 μl 10× reaction buffer, 2 μl plasmid (10 ng/μl), 1.25 μl forward-mutagenesis primer (100 ng/μl), 1.25 μl of reverse mutagenesis primer (100 ng/μl), 1 μl dNTP-mix and 1 μl PfuTurboDNA polymerase (2.5 U/μl). The reactions were placed in a PE 9700 thermal cycler and heated to 95° C. for 30 sec followed by 12 rounds at 95° C. for 30 sec, 55° C. for 1 min and 68° C. for 12 min. The PCR was followed by a DpnI-digestion and transformation in XL1-Blue supercompetent cells as described in the manual. 4-6 resulting colonies were grown overnight in LB-medium with kanamycin and plasmid DNA was isolated as described above. The plasmid was used as template for sequencing with M13 and internal PDS-primers as described above on a LiCOR-system. Sequences were assembled and analyzed using Seqman. Introduced mutations were identified and plasmids carrying the desired mutation(s) were transferred into competent TOP10-cells, using the transformation protocol from the TOPO TA Cloning Kit. Resulting colonies were grown overnight in Wu-broth with kanamycin, aliquoted and stored at −80° C. until further use. 1 ml of Wu-cultures was used to start 1-L LB-cultures with kanamycin as described before, to express active PDS-enzyme for testing as described.
Phytoene desaturase activity and its inhibition by herbicides was determined using an in vitro system using components derived from the in vivo production of phytoene and phytoene desaturase proteins. All mutations described in Examples 3 and 4 were tested. […] The clones were used for the heterologous expression of Hydrilla-PDS-enzyme. In particular, bacterial cultures were grown from single colonies overnight in Wu-broth (6.27 g/L K2HPO4, 1.8 g/L KH2PO4, 0.5 g/L Na-citrate, 0.9 g/L (NH4)2SO4, 10 g/L tryptone, 5 g/L yeast extract, 10 g/L NaCl, 44 ml/L glycerol, 0.1 mM MgSO4, pH 7.2) with kanamycin. 1-mL was aliquoted in centrifuge tube and stored at −80° C. For expression, 1 L LB-medium with kanamycin was inoculated with 1-mL Wu-culture and grown for 24 h at 37° C. to stationary phase with shaking at 200 rpm. The cells were collected by centrifugation at 2000×g. All of the following steps were done at 4° C. unless otherwise noted. Active soluble PDS enzyme was extracted by lysing the transformed E. coli cells using a French Press at 20,000 psi in assay buffer consisting of 100 mM Tris-HCl, pH 7.2, 10 mM magnesium-chloride, 0.1 mM NADP, 0.1 mM FAD, 10 mM cysteine, 5 mM DTT, 1 mM aminocaproic acid, and 1 μg/ml leupeptin. The soluble fraction containing PDS activity was obtained by centrifugation for 10 min at 1200×g. After 24 h they were centrifuged down and used in PDS enzyme activity assays as described below.

[2] = test system: Arabidopsis thaliana transformed with Hydrilla PDS constructs; assay: Herbicide resistance of transformed Arabidopsis T1 seedlings; type: in vivo
Text: Binary vectors for pds expression in plants included the 1-323 by upstream of the beginning of the putative mature protien, which is assumed to encode for chloroplast signal peptide/s. pHy4ATG5 was mutagenized at the amino acid 304 of pds to replace Arginine by Histidine, Threonine, Serine, or Cysteine, using the QuickChange™ Site-Directed Mutagenesis Kit of Stratagene (La Jolla, Calif.) and the same mutagenesis primers used for p3ORF-ATG indicated in the previous section. The resulting plasmids in this case were pHy4His, pHy4Thr, pHy4Ser and pHy4Cys. A 1.8 kb fragment between the TOPO4 SpeI site and the pds SspI site containing the pds gene was cloned into pCAMBIA1303 (CAMBIA, Canberra, Australia) SpeI-Pm1I sites (SspI and PmlI are compatible) replacing the 2.5 kb gus:mgfp; the resulting plasmid was designated pPDATG1303. The same strategy was used for each of the clones containing amino acid changes, generating plasmids pPDHIS1303, pPDTHR1303, pPDSER1303 and pPDCYS1303. The selectable marker in these constructs is the hygromycin phosphotransferase gene (hptll) for resistance to hygromycin in plants.
Arabidopsis thaliana ecotype Columbia (Col-0) was transformed with Agrobacterium using the floral dip method (Clough, S. J. and Bent, A. F. (1998) Floral dip: a simplified method for Agrobacterium-mediated transformation of Arabidopsis thaliana. The Plant Journal 16(6):735-743). Plants were grown at 21° C. with 16 h/8 h day and night until flowering and continuous light after inoculation (plants inoculated with Agrobacterium were denominated T0 plants). Selection of T1 (seeds produced by T0 plants) seedlings was performed on Petri plates with half-strength Murashige and Skoog (MS) medium (Murashige, T. and Skoog, F. (1962) A revised medium for rapid grOwth and bioassays with tobacco tissue cultures. Physiologia plantarum 15:473-497) supplemented with 1% sucrose, 0.2% phytagel and 300 μg/ml cefotaxime. […]
DNA was extracted according to Dilworth and Frey (2000)foreign genes detected by PCR. […]

Compound | pIC50 [1] | confirmed transformed plants resistant to the herbicide ([2]; construct pPDATG1303) | confirmed transformed plants resistant to the herbicide ([2]; construct pPDSER1303) | confirmed transformed plants resistant to the herbicide ([2]; construct pPDTHR1303)
CCC(Oc1ccc(F)c(C(F)(F)F)c1)C(=O)NCc1ccccc1 (centres unmarked) [Beflubutamid] | 5.59 | – | – | –
O=C(Nc1ccc(F)cc1F)c1cccnc1Oc1cccc(C(F)(F)F)c1 [Diflufenican] | 5.96 | – | – | –
O=C1C(Cl)C(CCl)CN1c1cccc(C(F)(F)F)c1 (centres unmarked) [Fluorochloridone] | 4.64 | – | – | –
CNC1=C(c2cccc(C(F)(F)F)c2)C(=O)C(c2ccccc2)O1 (centres unmarked) [Flurtamone] | 5.23 | – | – | –
CNc1cnn(-c2cccc(C(F)(F)F)c2)c(=O)c1Cl [Norflurazon] | 4.26 | 1 | 3 | 1
